The target of test [1] is T1, GSK3β (Homo sapiens (Human), UniProt P49841). Description: biochemical.
The target in test [2] is T2, GSK3α (Homo sapiens (Human), UniProt P49840). Description: biochemical.
The target in the next test is CK1δ (Homo sapiens (Human), UniProt P48730). Put plainly: biochemical.
Test [3] addresses T1, GSK3β. Description: biochemical. This is another data set of the same source.
Test [4] addresses T1, GSK3β. Put plainly: biochemical. The source holds these as a separate data set.
Test [5] deals with T1, GSK3β.
For test [6], the target named is T2, GSK3α.
Another test has as its target CDK5/p25 (Homo sapiens (Human), UniProt Q00535).

The structures appear in SMILES notation. Like-named read-outs stand apart in the source and are kept apart here.

Chain of CDK5/p25 (Q00535 whole entry, species assumed): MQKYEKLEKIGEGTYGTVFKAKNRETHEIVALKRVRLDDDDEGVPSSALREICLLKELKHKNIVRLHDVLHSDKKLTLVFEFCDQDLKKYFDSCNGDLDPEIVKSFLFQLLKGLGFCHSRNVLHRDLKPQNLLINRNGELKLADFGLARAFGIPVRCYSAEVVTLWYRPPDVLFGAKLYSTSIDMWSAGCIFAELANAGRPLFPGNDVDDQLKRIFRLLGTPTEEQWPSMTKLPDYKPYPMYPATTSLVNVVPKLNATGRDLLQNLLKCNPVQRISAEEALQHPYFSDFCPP
Chain of CDK5/p25 (Q15078 99-307 partner, species assumed): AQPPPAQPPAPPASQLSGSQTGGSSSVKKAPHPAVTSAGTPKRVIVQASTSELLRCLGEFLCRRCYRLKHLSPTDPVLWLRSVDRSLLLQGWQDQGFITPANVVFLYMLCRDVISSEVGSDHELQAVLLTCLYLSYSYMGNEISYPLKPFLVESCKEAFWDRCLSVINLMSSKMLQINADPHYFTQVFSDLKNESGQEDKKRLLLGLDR
T1 sequence (P49841 whole entry): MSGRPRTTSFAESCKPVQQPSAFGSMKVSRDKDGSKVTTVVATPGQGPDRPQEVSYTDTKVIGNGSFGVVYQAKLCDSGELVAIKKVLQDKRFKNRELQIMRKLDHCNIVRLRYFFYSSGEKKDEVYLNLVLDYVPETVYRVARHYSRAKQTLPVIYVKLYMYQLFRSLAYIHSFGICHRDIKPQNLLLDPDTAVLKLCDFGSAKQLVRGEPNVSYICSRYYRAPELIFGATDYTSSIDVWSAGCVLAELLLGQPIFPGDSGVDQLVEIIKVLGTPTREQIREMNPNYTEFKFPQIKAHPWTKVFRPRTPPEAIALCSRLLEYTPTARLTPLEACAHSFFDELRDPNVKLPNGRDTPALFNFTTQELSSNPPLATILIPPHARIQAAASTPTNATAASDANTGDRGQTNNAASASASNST
T2 sequence (P49840 whole entry): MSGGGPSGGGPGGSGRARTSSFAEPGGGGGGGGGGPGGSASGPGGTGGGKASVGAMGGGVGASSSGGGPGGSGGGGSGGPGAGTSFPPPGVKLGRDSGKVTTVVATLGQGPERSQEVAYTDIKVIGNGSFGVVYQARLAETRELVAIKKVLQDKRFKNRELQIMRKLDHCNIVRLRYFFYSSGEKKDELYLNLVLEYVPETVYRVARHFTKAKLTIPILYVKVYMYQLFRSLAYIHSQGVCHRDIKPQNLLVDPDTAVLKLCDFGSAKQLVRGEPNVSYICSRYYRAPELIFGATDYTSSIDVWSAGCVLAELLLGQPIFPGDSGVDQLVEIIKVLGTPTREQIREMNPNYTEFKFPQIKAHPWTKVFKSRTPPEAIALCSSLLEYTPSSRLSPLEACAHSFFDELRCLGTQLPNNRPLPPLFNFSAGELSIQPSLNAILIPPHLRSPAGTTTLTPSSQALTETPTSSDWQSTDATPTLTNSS
Chain of CK1δ (P48730 whole entry): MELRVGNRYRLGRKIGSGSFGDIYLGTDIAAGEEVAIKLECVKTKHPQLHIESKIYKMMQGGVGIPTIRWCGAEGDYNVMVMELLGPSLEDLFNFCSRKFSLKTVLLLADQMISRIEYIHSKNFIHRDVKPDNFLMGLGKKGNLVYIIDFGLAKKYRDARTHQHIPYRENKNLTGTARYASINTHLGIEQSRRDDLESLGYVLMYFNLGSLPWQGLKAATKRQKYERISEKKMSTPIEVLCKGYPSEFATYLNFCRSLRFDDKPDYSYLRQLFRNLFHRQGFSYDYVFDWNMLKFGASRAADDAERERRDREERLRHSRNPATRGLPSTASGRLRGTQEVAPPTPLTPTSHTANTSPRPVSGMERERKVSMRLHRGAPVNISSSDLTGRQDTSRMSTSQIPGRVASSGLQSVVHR
Protocol for CDK5/p25: Biochemical characterization of these synthesized compounds were assayed against GSK3β and CDK5/p25, with CDK5/p25 serving as a counter target of GSK3β selectivity. […] The effects of these compounds on survival of SH-SY5Y pathophysiology cells were also monitored.
Description for CK1δ: Approximately 20,000 Response Units (RU) of anti GST-antibody (GE Healthcare Life Sciences) were immobilized on Flow Cell (FC) 1 and FC2 of a new, freshly conditioned CM5 Sensor Chip (GE Healthcare Life Sciences) in a Biacore T100 instrument utilizing the immobilization wizard of the T100 software package. Approximately 1,500 RU of recombinant GST (GE Healthcare Life Sciences) was then captured on FC1 utilizing the capture wizard protocol of the T100 software package. FC1 is used as a reference subtraction point for this and all SPR assays. Approximately 2,700 RU of recombinant GST-CK1δ was then captured on FC2 utilizing the capture wizard protocol of the T100 software package. FC2 is used as the active flowcell for this and all SPR assays. The analyte plate is generated in dose response fashion in TBS buffer containing a final concentration of 2% DMSO, with a final analyte concentration of 10 μM, 100 nM and 10 nM. A zero value is determined by running injections of buffer containing only 2% DMSO and no analyte. All injections are run in duplicate and are reference subtracted from FC1. A method consisting of a 60 second contact time and 60 second wash time with a flow rate of 30 μL/min was employed. […] Analysis of compounds was done using the 1:1 binding model and affinity measurements in the Biacore T100 evaluation software package.
Conditioning new chip: PBS immobilization buffer was loaded into buffer shelf and insert buffer line A. Unused CM5 sensor chip was loaded into instrument per user manual. Chip was primed with 6 minutes of buffer injection at 30 μL/min.
Primed chip again as described above. Generated anti GST antibody solution by mixing 4.5 μL anti GST antibody (GE Healthcare Life Sciences, GST Capture Kit) with 95.5 μL immobilization buffer (GE Healthcare Life Sciences, GST Capture Kit). Put solution into 700 μL small vial and cap. Repeated. Placed both vials in reagent rack 1 of Biacore T100 instrument and insert into machine per user manual. Initiated immobilization of anti GST antibody by utilizing the immobilization Wizard protocol of Biacore T100 software. Immobilized approximately 20,000 Response Units (RU) of anti GST antibody on FC1 and FC2. […] Inserted buffer line A. Repeated prime procedure. Generated GST protein solution by mixing 2 μL of recombinant GST (GE Healthcare Life Sciences, GST Capture Kit) with 98 μL TBS 2% DMSO buffer. Generated GST-CK1δ protein solution by mixing 5 μL of recombinant GST-CK1δ with 95 μL TBS 2% DMSO running buffer. Placed GST protein solution in position B1 on reagent rack 1. Placed GST-CK1δ protein solution in position Cl on reagent rack 1. Initiated a manual injection run and inject for 30 seconds at 5 μL/min GST protein solution on FC1 to generate reference flow cell. […] Captured approximately 1500 RU GST protein on FC1. Captured approximately 2700 RU GST-CK1δ protein on FC2.
An analyte plate was generated for the assay. Using a standard deep volume 384 well plate, placed 100 μL of a 10 μM analyte in TBS 2% DMSO solution wells A1 and A2. Placed 100 μL of a 50 nM analyte in TBS 2% DMSO solution in wells A3 and A4. Placed 100 μL of a 10 nM analyte in TBS 2% DMSO solution in wells A5 and A6. Placed 100 μL of TBS 2% DMSO running buffer in wells A7 and A8. Repeated steps for subsequent analytes. Placed analyte plate in Biacore T100 per user manual.

One may read the IC50 as the concentration at which inhibition is half-maximal. Higher therefore signals lower potency. One may read the Kd as the concentration at which binding is half-saturated. Lower therefore signals tighter binding. As to `Cc1[nH]nc2c1C(c1cccs1)C1=C(CC(C)(C)CC1=O)N2` (racemic) [Compound 5, 3,7,7-trimethyl-4-(thiophen-2-yl)-6,7,8,9-tetrahydro-1H-pyrazolo[3,4-b]quinolin-5(4H)-one], the IC50 on GSK3β [1], on GSK3α [2] and against GSK3β [4] was 0.101 to 1 µM in each case. For the same compound, the Kd at CK1δ and at GSK3β [3] was 0.101 to 1 µM each time.

On to `Cc1[nH]nc2c1[C@H](c1ccccc1C(F)(F)F)C1=C(CC(C)(C)CC1=O)N2` (racemic) [Compound 28, 3,7,7-trimethyl-4-(2-(trifluoromethyl)phenyl)-6,7,8,9-tetrahydro-2H-pyrazolo[3,4-b]quinolin-5(4H)-one], for which the IC50 at GSK3β [5], at GSK3α [6] and against GSK3β [4] was under 0.1 µM in each case. At CDK5/p25, the “ADP Glo Assay GSK3β vs CDK5 fold selectivity” value was 12X.

As for `CC1(C)CC(=O)C2=C(C1)Nc1n[nH]c(C(F)(F)F)c1C2(C)c1ccccc1` (racemic) [Compound 68, 4,7,7-trimethyl-4-phenyl-3-(trifluoromethyl)-6,7,8,9-tetrahydro-2H-pyrazolo[3,4-b]quinolin-5(4H)-one], the IC50 against GSK3β [5], at GSK3α [6] and at GSK3β [4] was under 0.1 µM in each case. The “ADP Glo Assay GSK3β vs CDK5 fold selectivity” value on CDK5/p25 was found to be 244X.

`CC1(C)CC(=O)C2=C(C1)Nc1n[nH]c(C(F)(F)F)c1[C@@H]2c1ccccc1C(F)(F)F` (racemic) [Compound 72, 7,7-dimethyl-3-(trifluoromethyl)-4-(2-(trifluoromethyl)phenyl)-6,7,8,9-tetrahydro-2H-pyrazolo[3,4-b]quinolin-5(4H)-one]: the IC50 on GSK3α [6] and against GSK3β [1] was under 0.1 µM in each case.

Consider `Cc1[nH]nc2c1[C@H](c1ccccc1Br)C1=C(CC(C)(C)CC1=O)N2` (racemic) [Compound 80, 4-(2-bromophenyl)-3,7,7-trimethyl-6,7,8,9-tetrahydro-2H-pyrazolo[3,4-b]quinolin-5(4H)-one], for which the IC50 at GSK3α [6] and against GSK3β [1] was under 0.1 µM each time.

`Cc1[nH]nc2c1C(c1ccsc1)C1=C(CC(C)(C)CC1=O)N2` (centres unmarked) [Compound 8, 3,7,7-trimethyl-4-(thiophen-3-yl)-6,7,8,9-tetrahydro-1H-pyrazolo[3,4-b]quinolin-5(4H)-one]: the concentration for half-maximal inhibition (IC50) is 0.101 to 1 µM on GSK3β [1], 0.101 to 1 µM at GSK3α [2] and 1 to 5 µM against GSK3β [4]. Besides, the Kd at CK1δ and on GSK3β [3] was 0.101 to 1 µM each time.

Turning to `Cc1[nH]nc2c1C(c1ccc(Cl)s1)C1=C(CC(C)(C)CC1=O)N2` (centres unmarked) [Compound 9, 4-(5-chlorothiophen-2-yl)-3,7,7-trimethyl-6,7,8,9-tetrahydro-1H-pyrazolo[3,4-b]quinolin-5(4H)-one], the values for the IC50 on GSK3β [1], at GSK3α [2] and at GSK3β [4] were 0.101 to 1 µM, 0.101 to 1 µM and 1 to 5 µM, respectively. In addition, the Kd at CK1δ lay in the range of 1 to 5 µM; on GSK3β [3], 0.101 to 1 µM.

Turning to `Cc1[nH]nc2c1C(c1ccccc1Cl)C1=C(CC(C)(C)CC1=O)N2` (centres unmarked) [Compound 13, 4-(2-chlorophenyl)-3,7,7-trimethyl-6,7,8,9-tetrahydro-2H-pyrazolo[3,4-b]quinolin-5(4H)-one], the IC50 at GSK3β [5] was under 0.1 µM; against GSK3α [6], under 0.1 µM; on GSK3β [4], 0.101 to 1 µM. For the same compound, the “ADP Glo Assay GSK3β vs CDK5 fold selectivity” value on CDK5/p25 is listed as 6X.

`Cc1[nH]nc2c1C(c1ccccc1Br)C1=C(CC(C)(C)CC1=O)N2` (centres unmarked) [Compound 16]: the IC50 on GSK3β [5] and against GSK3α [6] was under 0.1 µM in each case. Moreover, the “ADP Glo Assay GSK3β vs CDK5 fold selectivity” value on CDK5/p25 was 14X.

With `CSc1ccccc1C1C2=C(CC(C)(C)CC2=O)Nc2n[nH]c(C)c21` (centres unmarked) [Compound 25, 3,7,7-trimethyl-4-(2-(methylthio)phenyl)-6,7,8,9-tetrahydro-2H-pyrazolo[3,4-b]quinolin-5(4H)-one], the IC50 on GSK3β [5], at GSK3α [6] and at GSK3β [4] was under 0.1 µM throughout. Further, the “ADP Glo Assay GSK3β vs CDK5 fold selectivity” value at CDK5/p25 turned out to be 124X.

With `Cc1[nH]nc2c1[C@@H](c1ccccc1C#N)C1=C(CC(C)(C)CC1=O)N2` [Compound 32, 2-(3,7,7-trimethyl-5-oxo-4,5,6,7,8,9-hexahydro-2H-pyrazolo[3,4-b]quinolin-4-yl)benzonitrile], the figures for the IC50 against GSK3β [5], at GSK3α [6] and at GSK3β [4] were under 0.1 µM, under 0.1 µM and 0.101 to 1 µM, respectively. The “ADP Glo Assay GSK3β vs CDK5 fold selectivity” value on CDK5/p25 was 30X.

With `Cc1[nH]nc2c1C(c1cccc(C#N)c1)C1=C(CC(C)(C)CC1=O)N2` (centres unmarked) [Compound 33, 3-(3,7,7-trimethyl-5-oxo-4,5,6,7,8,9-hexahydro-2H-pyrazolo[3,4-b]quinolin-4-yl)benzonitrile], the IC50 against GSK3β [5], against GSK3α [6] and on GSK3β [4] was under 0.1 µM each time. Further, the “ADP Glo Assay GSK3β vs CDK5 fold selectivity” value at CDK5/p25 is on record as 131X.

On to `Cc1[nH]nc2c1C(c1cccc3nonc13)C1=C(CC(C)(C)CC1=O)N2` (centres unmarked) [Compound 41], for which the IC50 against GSK3β [5] is under 0.1 µM. In addition, at CDK5/p25, the “ADP Glo Assay GSK3β vs CDK5 fold selectivity” value was 51X.

For `CCc1[nH]nc2c1C(c1ccccc1OC)C1=C(CC(C)(C)CC1=O)N2` (centres unmarked) [Compound 48], the half-maximal inhibitory concentration (IC50) on GSK3β [5] was under 0.1 µM. In addition, at CDK5/p25, the “ADP Glo Assay GSK3β vs CDK5 fold selectivity” value worked out at 35X.

`COc1ccccc1C1C2=C(CC(C)(C)CC2=O)Nc2n[nH]c(C(C)C)c21` (centres unmarked) [Compound 49] came in with an IC50 against GSK3β [5] of under 0.1 µM. Further, the “ADP Glo Assay GSK3β vs CDK5 fold selectivity” value on CDK5/p25 was determined as 14X.

In the case of `CC1(C)CC(=O)C2=C(C1)Nc1n[nH]c(C(F)(F)F)c1C2c1ccccc1` (centres unmarked) [Compound 52], the IC50 against GSK3β [5] is under 0.1 µM. For the same compound, the “ADP Glo Assay GSK3β vs CDK5 fold selectivity” value on CDK5/p25 came out at 615X.

`CC1(C)CC(=O)C2=C(C1)Nc1n[nH]c(C(F)(F)F)c1C2c1ccccc1F` (centres unmarked) [Compound 58] yielded an IC50 against GSK3β [5] of under 0.1 µM.

For `CC1(C)CC(=O)C2=C(C1)Nc1n[nH]c(C(F)(F)F)c1C2c1cccc(F)c1C(F)(F)F` (centres unmarked) [Compound 63], the IC50 against GSK3β [5] was under 0.1 µM. Moreover, the “ADP Glo Assay GSK3β vs CDK5 fold selectivity” value at CDK5/p25 came out at 276X.

On to `CC1(C)CC(=O)C2=C(C1)Nc1n[nH]c(C(F)(F)F)c1C2c1cc(F)ccc1C(F)(F)F` (centres unmarked) [Compound 64], for which the 50% inhibitory concentration (IC50) against GSK3β [5] is under 0.1 µM. Besides, the “ADP Glo Assay GSK3β vs CDK5 fold selectivity” value on CDK5/p25 is 162X.

As for `Cc1[nH]nc2c1C(C)(c1cccc(C(N)=O)c1)C1=C(CC(C)(C)CC1=O)N2` (centres unmarked) [Compound 90, 3-(3,4,7,7-tetramethyl-5-oxo-4,5,6,7,8,9-hexahydro-2H-pyrazolo[3,4-b]quinolin-4-yl)benzamide], the IC50 on GSK3α [6] and at GSK3β [1] was under 0.1 µM throughout.

On to `COC(=O)c1[nH]nc2c1C(C)(c1ccccc1)C1=C(CC(C)(C)CC1=O)N2` (centres unmarked) [Compound 104], for which the IC50 at GSK3α [6] and at GSK3β [1] was under 0.1 µM throughout.

Turning to `CC1(C)CC(=O)C2=C(C1)Nc1n[nH]c(C3CC3)c1C2(c1ccccc1)C(F)(F)F` (centres unmarked) [Compound 112], the half-maximal inhibitory concentration (IC50) at GSK3α [6] and at GSK3β [1] was under 0.1 µM in each case.

Consider `CC1(C)CC(=O)C2=C(C1)Nc1n[nH]c(C3CC3)c1C2(C)c1ccccc1F` (centres unmarked) [Compound 116], for which the IC50 against GSK3α [6] and against GSK3β [1] was under 0.1 µM in each case.

`Cc1[nH]nc2c1[C@](C)(c1ccccc1)C1=C(CC(C)(C)CC1=O)N2` [Compound 123] registered an IC50 on GSK3α [6] of under 0.1 µM.

Source of the values: patent US9096594B2, “Kinase inhibitors and methods of use thereof” (priority 2012, dated 2015).
